16 molecules from ChEMBL document CHEMBL1133035, “Cysteine chloromethyl and diazomethyl ketone derivatives with potent anti-leukemic activity” (Bioorg Med Chem Lett, 2000) can be followed below.

Where a SMILES comes first, the peptide text is derived from it. The star is where a group is joined. Farnesyl = CC(C)=CCC/C(C)=C/CC/C(C)=C/C*; Boc = CC(C)(C)OC(=O)*; CHN2 = [N-]=[N+]=C*; CH2Cl = ClC*

Assay [1] deals with NALM-6. Description: Anti-leukemic activity against Nalm-6 (B-lineage ALL) human acute lymphoblastic leukemia (ALL) cell line. It counts as functional, cell-based.
The subject of assay [2] is MOLT-3. Description: Anti-leukemic activity against Molt-3 (T-lineage ALL) human acute lymphoblastic leukemia (ALL) cell line. In kind it is functional, cell-based.

As usually defined, the IC50 is the concentration that inhibits the measured activity by half. Low values mean higher potency, high ones lower potency. Turning to `CC(=O)N[C@@H](CSC/C=C(\C)CCC=C(C)C)C(=O)C=[N+]=[N-]`, the IC50 in assay [1] and in assay [2] was above 100 µM throughout.

For the molecule `CC(=O)N[C@@H](CSC/C=C(\C)CC/C=C(\C)CCC=C(C)C)C(=O)C=[N+]=[N-]`, the values for the IC50 in assay [1] and in assay [2] were 30.3 µM and 32.2 µM, respectively.

`CC(C)=CCC/C(C)=C/CC/C(C)=C/CSC[C@H](NC(=O)OC(C)(C)C)C(=O)CCl`: the IC50 in assay [1] was determined as 10.7 µM; in assay [2], 7.7 µM.

Take `CCCCCCCCCCCCSC[C@H](NC(C)=O)C(=O)C=[N+]=[N-]`: the IC50 in assay [1] turned out to be 15.4 µM; in assay [2] it was 22.9 µM.

Regarding `CC(=O)N[C@@H](CSC/C=C(\C)CC/C=C(\C)CCC=C(C)C)C(=O)CCl`, the half-maximal inhibitory concentration (IC50) in assay [1] turned out to be 3 µM; in assay [2] it was 1.4 µM.

In the case of `CC(=O)N[C@@H](CSCC=C(C)C)C(=O)CCl`, the results for the IC50 in assay [1] and in assay [2] were 12.6 µM and 7.9 µM, respectively.

With `CC(=O)N[C@@H](CSC/C=C(\C)CCC=C(C)C)C(=O)CCl`, the IC50 in assay [1] and in assay [2] was above 100 µM each time.

As for `CCCCCCCCCCCCSC[C@H](NC(=O)OC(C)(C)C)C(=O)CCl`, the IC50 in assay [1] worked out at 15.1 µM; in assay [2], 15.5 µM.

For `CC(C)=CCC/C(C)=C/CC/C(C)=C/CSCCC(=O)CCl`, the IC50 in assay [1] came out at 40.7 µM; in assay [2], 35.5 µM.

Regarding `CC(C)=CCC/C(C)=C/CC/C(C)=C/CSCC(=O)CCl`, the IC50 was 84.3 µM in assay [1] and above 100 µM in assay [2].

On to `CC(C)=CCC/C(C)=C/CC/C(C)=C/CSC[C@H](NC(=O)OC(C)(C)C)C(=O)C=[N+]=[N-]`, for which the IC50 is 49.8 µM in assay [1] and 50.1 µM in assay [2].

Take `CC(=O)N[C@@H](CSCC=C(C)C)C(=O)C=[N+]=[N-]`: the IC50 in assay [1] and in assay [2] was above 100 µM in each case.

On to `CCCCCCCCCCCCSC[C@H](NC(C)=O)C(=O)CCl`, for which the IC50 in assay [1] amounted to 2 µM; in assay [2], 2.3 µM.

On to `CCCCCCCCCCCCSC[C@H](N)C(=O)CCl`, for which the IC50 in assay [1] came out at 17.7 µM; in assay [2], 12.5 µM.

Consider `CC(C)=CCC/C(C)=C/CC/C(C)=C/CSC[C@H](NC(=O)CNC(=O)OC(C)(C)C)C(=O)CCl` (Boc-Gly-Cys(Farnesyl)-CH2Cl), for which the IC50 in assay [1] was found to be 12.9 µM; in assay [2], 17.5 µM.

On to `CC(C)=CCC/C(C)=C/CC/C(C)=C/CSC[C@H](NC(=O)CNC(=O)OC(C)(C)C)C(=O)C=[N+]=[N-]` (Boc-Gly-Cys(Farnesyl)-CHN2), for which the values for the IC50 in assay [1] and in assay [2] were 51.3 µM and 84.5 µM, respectively.
